Experimental data: patent publication US10266544B2, “Aryl substituted aminomethyl spectinomycin analogs as antibacterial agents” (ST. JUDE CHILDREN'S RESEARCH HOSPITAL, INC., priority 2013, dated 2019)
Structures can show the parent of a compound that is named as a salt. Where two headings read alike, the source gives them in different places.

Legend:
Assay type in all cases: cell-based
[1] = system: E. coli K12 ΔtolC; assay: microbe, parasite or virus in culture; conditions: Escherichia coli, read-out: MIC E.c. Δtolc
[2] = system: Escherichia coli (ATCC 700926); assay: MIC determination, microbroth dilution; conditions: ATCC700926; Escherichia coli (ATCC 700926); read-out: MIC E.c.
[3] = system: Haemophilus influenza (ATCC 49247); assay: microbe, parasite or virus in culture; conditions: ATCC49247; Haemophilus influenza; 4 μg per disc; range of at least two experiments; read-out: Zone of inhibition H.i.
[4] = system: Pseudomonas aeruginosa (PA01); assay: MIC determination, microbroth dilution
[5] = system: Bacillus anthracis, Sterne 34F2; assay: microbe, parasite or virus in culture; conditions: STERNE34F2, read-out: MIC B.a.
[6] = system: Proteus vulgaris (ATCC 33420); assay: MIC determination, microbroth dilution; conditions: ATCC33420
[7] = system: Streptococcus pyogenes (ATCC 700294); assay: MIC determination, microbroth dilution; conditions: ATCC700294; Streptococcus pyogenes (ATCC 700294); read-out: MIC S. py.
[8] = system: Stenotrophomonas maltophilia (ATCC 13637); assay: MIC determination, microbroth dilution; conditions: ATCC13637; Stenotrophomonas maltophilia (ATCC 13637); read-out: MIC S.m.
[9] = system: Moraxella catarrhalis; assay: MIC determination (Table 6)
[10] = system: Legionella pneumophila (ATCC 33153); assay: microbe, parasite or virus in culture; conditions: ATCC33153, 72 h, read-out: Zone of inhibition L.p.
[11] = system: MRSA, Staphylococcus aureus (NRS70); assay: MIC determination, microbroth dilution; conditions: read-out: MIC MRSA
[12] = system: Burkholderia cepacia (ATCC 25416); assay: MIC determination, microbroth dilution; conditions: Burkholderia cepacia
[13] = system: M. tuberculosis clinical isolates; assay: microbe, parasite or virus in culture; conditions: Mycobacterium tuberculosis
[14] = system: Proteus mirabilis (ATCC 25933); assay: MIC determination, microbroth dilution; conditions: ATCC25933
[15] = system: Enterococcus faecalis (ATCC 33186); assay: MIC determination, microbroth dilution
[16] = system: Streptococcus pneumoniae (R6); assay: MIC determination, microbroth dilution; conditions: Streptococcus pneumoniae (R6); read-out: MIC S. pn.
[17] = system: acinetobacter baumannii (ATCC 19606); assay: MIC determination, microbroth dilution; conditions: ATCC19606
[18] = system: Bacillus subtilis (ATCC 23857); assay: MIC determination, microbroth dilution; conditions: ATCC23857; Bacillus subtilis (ATCC 23857); read-out: MIC B.s.
[19] = system: Bacillus anthracis; assay: microbe, parasite or virus in culture; conditions: read-out: MIC B.a.
[20] = system: Neisseria gonorrhoeae (ATCC 49226); assay: Disc diffusion assay; conditions: ATCC49226, 4 μg per disc, read-out: Zone of inhibition N.g.
[21] = system: Staphylococcus aureus (ATCC 29213); assay: MIC determination, microbroth dilution
[22] = system: Neisseria meningitides (ATCC 13077); assay: Disc diffusion assay; conditions: ATCC13077, 4 μg per disc, read-out: Zone of inhibition N.m.
[23] = system: Klebsiella pneumoniae (ATCC 33495); assay: MIC determination, microbroth dilution; conditions: ATCC33495
[24] = system: Listeria monocytogenes; assay: MIC determination (Table 6)
[25] = ATCC25416, read-out: MIC B.c., Burkholderia cepacia (ATCC 25416)
[26] = ATCC25416, read-out: MIC B.c., Burkholderia cepacia, Table 6
[27] = ATCC29213, Staphylococcus aureus (ATCC 29213), read-out: MIC S.a.

`CN[C@@H]1[C@H](O)[C@H](NC)[C@H]2O[C@]3(O)[C@H](O[C@@H]2[C@H]1O)O[C@H](C)C[C@@]3(O)CNCc1ccc(C(C)C)cc1` [compound 23, 3′-(R)-3′-[(4-isopropyl)benzylaminomethyl)]dihydrospectinomycin Trihydrochloride] was tested, and the MIC [1] was 3.1 to 6.3 µg/mL, the MIC [2] was 12.5 µg/mL and the zone of inhibition at 4 µg/disc [3] was 15 mm. It also gave an MIC [4] of 25 µg/mL, an MIC [5] of 12.5 µg/mL and an MIC [6] of over 200 µg/mL. For the same compound, the MIC [7] was 1.6 µg/mL, the MIC [8] was 6.3 µg/mL and the MIC [9] was 3.1 to 6.3 µg/mL. It also gave a zone of inhibition at 4 µg/disc [10] of 12 mm, an MIC ([11]; Staphylococcus aureus) of 12.5 µg/mL and an MIC [12, 25] of over 200 µg/mL. The MIC [12, 26] was over 200 µg/mL, the MIC ([13]; H37RV, read-out: MIC H37Rv) was 25 µg/mL and the MIC [14] was over 200 µg/mL. For the same compound, the MIC ([15]; Enterococcus faecalis, ATCC33186, read-out: MIC E.f.) was 12.5 µg/mL, the MIC [16] was 1.6 to 3.1 µg/mL and the MIC [17] was 50 µg/mL. The MIC [18] was 6.3 µg/mL, the MIC [19] was 12.5 µg/mL and the zone of inhibition at 4 µg/disc [20] was 18 mm. For the same compound, the MIC ([21]; Staphylococcus aureus, ATCC29213, read-out: MIC S.a.) was 12.5 to 25 µg/mL, the zone of inhibition at 4 µg/disc [22] was 17 mm and the MIC [23] was 50 µg/mL. The MIC [24] was 6.3 µg/mL.
With `CN[C@@H]1[C@H](O)[C@H](NC)[C@H]2O[C@]3(O)[C@H](O[C@@H]2[C@H]1O)O[C@H](C)C[C@@]3(O)CNCCc1ccc(Cl)cc1` [compound 54, 3′-(R)-3′-[(4-chloro)phenethylaminomethyl]dihydrospectinomycin Trihydrobromide] the MIC [1] was 12.5 to 25 µg/mL, the MIC [2] was 50 to 100 µg/mL and the zone of inhibition at 4 µg/disc [3] was 9 mm. It also gave an MIC [4] of over 200 µg/mL, an MIC [5] of 200 µg/mL and an MIC [6] of over 200 µg/mL. For the same compound, the MIC [7] was 25 µg/mL, the MIC [8] was at least 200 µg/mL and the MIC [9] was 6.3 µg/mL. The zone of inhibition at 4 µg/disc [10] was 15 mm, the MIC ([11]; Staphylococcus aureus (NRS70)) was over 200 µg/mL and the MIC [12, 25] was over 200 µg/mL. The MIC [12, 26] was over 200 µg/mL, the MIC ([13]; H37RV, read-out: MIC H37Rv) was 25 µg/mL and the MIC ([13]; read-out: MIC TN022) was 25 µg/mL. It also gave an MIC ([13]; read-out: MIC TN026) of 50 µg/mL, an MIC [14] of over 200 µg/mL and an MIC [16] of 25 µg/mL. For the same compound, the MIC [17] was over 200 µg/mL, the MIC [18] was 25 to 50 µg/mL and the MIC [19] was 200 µg/mL. It also gave a zone of inhibition at 4 µg/disc [20] of 11 mm, an MIC [21, 27] of 100 to 200 µg/mL and a zone of inhibition at 4 µg/disc [22] of 7 mm. For the same compound, the MIC [23] was over 200 µg/mL and the MIC [24] was 25 µg/mL.
Compound `CN[C@@H]1[C@H](O)[C@H](NC)[C@H]2O[C@]3(O)[C@H](O[C@@H]2[C@H]1O)O[C@H](C)C[C@@]3(O)CNCc1cccc(OC(F)(F)F)c1` [compound 25, 3′-(R)-3′-[(3-trifluoromethoxyl)benzylaminomethyl)]dihydrospectinomycin Trihydrochloride] has a zone of inhibition at 4 µg/disc [3] of 9 to 10 mm, an MIC [4] of 50 to 100 µg/mL and an MIC [5] of 25 µg/mL. The MIC [6] was over 200 µg/mL, the MIC [7] was 1.6 µg/mL and the MIC [8] was 12.5 to 25 µg/mL. The MIC [9] was 6.3 µg/mL, the zone of inhibition at 4 µg/disc [10] was 19 mm and the MIC ([11]; Staphylococcus aureus (NRS70)) was 50 µg/mL. It also gave an MIC [12, 26] of over 200 µg/mL, an MIC ([13]; H37RV, read-out: MIC H37Rv) of 200 µg/mL and an MIC [14] of over 200 µg/mL. For the same compound, the MIC ([15]; ATCC33186, Enterococcus faecalis (ATCC 33186), read-out: MIC E.f.) was 12.5 to 25 µg/mL, the MIC [16] was 1.6 to 3.1 µg/mL and the MIC [18] was 12.5 to 25 µg/mL. It also gave an MIC [19] of 25 µg/mL, a zone of inhibition at 4 µg/disc [20] of 18 mm and an MIC [21, 27] of 25 to 50 µg/mL. The zone of inhibition at 4 µg/disc [22] was 18 mm and the MIC [24] was 6.3 µg/mL.
In the case of `CN[C@@H]1[C@H](O)[C@H](NC)[C@H]2O[C@]3(O)[C@H](O[C@@H]2[C@H]1O)O[C@H](C)C[C@@]3(O)CNCCN1CCOCC1` [compound 51, 3′-(R)-3′-[(2-morpholinoethyl)aminomethyl]dihydrospectinomycin tetrahydrochloride], the MIC [1] is reported as 25 to 50 µg/mL, the MIC [2] is reported as 50 µg/mL and the zone of inhibition at 4 µg/disc [3] is reported as 6 mm. The MIC [4] was at least 200 µg/mL, the MIC [5] was 100 to 200 µg/mL and the MIC [6] was at least 200 µg/mL. For the same compound, the MIC [7] was 100 µg/mL, the MIC [8] was 50 µg/mL and the MIC [9] was 3.1 µg/mL. For the same compound, the zone of inhibition at 4 µg/disc [10] was 22 mm, the MIC ([11]; Staphylococcus aureus (NRS70)) was over 200 µg/mL and the MIC [12, 25] was over 200 µg/mL. For the same compound, the MIC [12, 26] was over 200 µg/mL, the MIC ([13]; H37RV, read-out: MIC H37Rv) was 25 µg/mL and the MIC ([13]; read-out: MIC TN022) was 50 µg/mL. For the same compound, the MIC ([13]; read-out: MIC TN026) was 100 µg/mL, the MIC [14] was 50 to 100 µg/mL and the MIC [16] was 100 µg/mL. The MIC [17] was over 200 µg/mL, the MIC [18] was 50 to 100 µg/mL and the MIC [19] was 100 to 200 µg/mL. It also gave a zone of inhibition at 4 µg/disc [20] of 0 mm, an MIC [21, 27] of 100 to 200 µg/mL and a zone of inhibition at 4 µg/disc [22] of 6 mm. The MIC [23] was 100 to 200 µg/mL and the MIC [24] was 25 µg/mL.
Work on `CN[C@@H]1[C@H](O)[C@H](NC)[C@H]2O[C@]3(O)[C@H](O[C@@H]2[C@H]1O)O[C@H](C)C[C@@]3(O)CNCCC1CCOCC1` [compound 52, 3′-(R)-3′-[(2-(tetrahydro-2H-pyran-4-yl)ethyl)aminomethyl]dihydrospectinomycin Trihydrochloride] yielded an MIC [1] of 25 to 50 µg/mL, an MIC [2] of 50 to 100 µg/mL and a zone of inhibition at 4 µg/disc [3] of 10 mm. It also gave an MIC [4] of over 200 µg/mL, an MIC [5] of 50 to 100 µg/mL and an MIC [6] of over 200 µg/mL. The MIC [7] was 100 µg/mL, the MIC [8] was 12.5 to 25 µg/mL and the MIC [9] was 3.1 µg/mL. It also gave a zone of inhibition at 4 µg/disc [10] of 32 mm, an MIC ([11]; Staphylococcus aureus (NRS70)) of over 200 µg/mL and an MIC [12, 25] of over 200 µg/mL. The MIC [12, 26] was over 200 µg/mL, the MIC ([13]; H37RV, read-out: MIC H37Rv) was 3.1 µg/mL and the MIC ([13]; read-out: MIC TN022) was 6.3 µg/mL. It also gave an MIC ([13]; read-out: MIC TN026) of 3.1 µg/mL, an MIC [14] of 200 µg/mL and an MIC [16] of 25 to 50 µg/mL. It also gave an MIC [17] of over 200 µg/mL, an MIC [18] of 25 µg/mL and an MIC [19] of 50 to 100 µg/mL. For the same compound, the zone of inhibition at 4 µg/disc [20] was 7 mm, the MIC [21, 27] was 200 µg/mL and the zone of inhibition at 4 µg/disc [22] was 12 mm. It also gave an MIC [23] of 100 µg/mL and an MIC [24] of 12.5 µg/mL.
